Measurements from article PMC3996151, “Safety and pharmacological characterization of the molecular tweezer CLR01 – a broad-spectrum inhibitor of amyloid proteins’ toxicity” (BMC Pharmacology & Toxicology, 2014).
“And” between values parts separate entries of the source, which are not always exact repeats. Equal entries are not always repeated.

Experiments:
[1] = set-up: method as in PMID 23183235; settings: 3H-CLR01 IV, 12-m old WT and 3×Tg AD mice; cited from earlier work
[2] = test system: cytochrome P450 system, five major isoforms; set-up: method as in PMID 23183235; settings: half-maximal inhibition concentration values above levels expected to cause drug–drug interactions; cited from earlier work
[3] = test system: primary neurons; set-up: method as in PMID 23183235; settings: cited from earlier work
[4] = set-up: method as in PMID 21916458, PMID 16218636; settings: cited from earlier work
[5] = Solubility in aqueous solutions; type: physicochemical
[6] = Plasma concentration by LC-MS after SC, IV or oral administration; type: in vivo, mouse
Method: For studies of plasma concentration, CLR01 was administered by either SC or intravenous (IV) injection at 1 mg/kg, or by oral gavage at 10 mg/kg, and plasma was collected at time points between 0.33 - 24 h. Three mice were used per time point. The concentration of CLR01 in plasma was determined by Wolfe Laboratories Inc. (Watertown, MA) using liquid chromatography-mass spectrometry (LC-MS) by interpolation of sample peak area data into the calibration curve.

[7] = set-up: method as in PMID 18605724, PMID 23750919; settings: cited from earlier work
[8] = Blood-brain barrier permeability with 3H-CLR01 IV (scintillation counting of blood and brain); type: in vivo, mouse; settings: for Blood radioactivity levels, % of the injected levels: 0.5 h following IV injection; for Brain radioactivity after double injection compared to one injection: two 11.86-μg/g injections
Method: The following groups of mice were used for CLR01 BBB penetration studies: 3×Tg and the corresponding WT mice at 2-m, 12-m, and 22 - 24-m (hereafter referred to as 22-m) of age. The groups were: 2-m WT, 2-m Tg, 12-m WT, 12-m Tg, 22-m WT, 22-m Tg. Mice were administered ^3H-CLR01 intravenously. Two μCi per gram of mouse body weight, which are equal to 11.86 μg/g of CLR01 in which ^3H-CLR01 made up 10% of the total CLR01, were injected into the jugular vein. Blood and brain were collected at 0.5, 1, 3, 8, 24, or 72 h (not all time points were collected for all groups, see the Results section). For times ≤ 3 h, mice were anesthetized by IP injection of ketamine and xylazine. The mice remained anesthetized following the injection until the specified time point, at which point they were given a lethal dose of pentobarbital. Then, blood was collected via a cardiac puncture, and the brain harvested with or without a perfusion step Pharmacokinetics of CLR01 in vivo. For time points 8–72 h, mice were not anesthetized and ^3H-CLR01 was injected into the tail vein. This change was due to the difficulty of keeping mice anesthetized for longer than 3 h. No differences were observed between mice given anesthesia and jugular vein injections and mice receiving tail vein injections.
Euthanasia procedures were the same as described above. For all mice, one hemisphere of the brain and 100–350 μl of blood were separately digested following instructions from Perkin-Elmer (document: Scintillation Cocktails and Consumables) with 1 ml Solvable (Perkin-Elmer, Waltham, MA), added to Ultima Gold Liquid Scintillation Cocktail (Perkin-Elmer) and read in a Triathler Liquid Scintillation Counter model 425–034, (Hidex, Turku, Finland). Brain permeability percentage was calculated as counts per minute (CPM) per g of brain relative to CPM per ml of blood. The data are an average of values from three mice per genotype/age/time combination.
For CLR01 transport-saturation studies using 5× the CLR01 dose, ^3H-CLR01 was kept at 10% of the total CLR01 mixture and a total of 59.3 μg of CLR01 (10 μCi) per g of mouse body weight was injected IV (22-m WT 5× dose). For CLR01 brain-accumulation studies, two 11.86-μg/g injections were administered at equal time intervals (22-m WT 2× inj). In these experiments, mice were injected at time = 0 and at t = ½ of euthanasia time. For example, in the original, single-injection experiments, a mouse would receive an injection at t = 0 and then be euthanized at t = 1 h. In this experiment, a mouse received one injection at t = 0, a second injection at t = 0.5 h, and then was euthanized at t = 1 h.
In experiments using ^3H-CLR01, urine was collected when possible over the period between injection and euthanasia. […] We could not normalize the radioactivity because the amount of urine in the bladder prior to injection and the volume produced during the experiment could not be calculated.
To correct for the radioactivity associated with blood-borne ^3H-CLR01 in the brain vasculature, we performed both perfusion and subtraction analyses. In perfusion experiments, WT and 3×Tg mice at each of the three ages analyzed (n = 3 per group) were perfused with phosphate buffered saline following euthanasia. Perfusion lasted for either 5 min or until the liver changed color from a red to yellow, whichever was longer. In other experiments, mice were not perfused, but radioactivity associated with 10 μl of blood per g of brain [29, 30] was calculated based on brain weight and blood radioactivity levels and subtracted from brain radioactivity levels. At 1 h post injection, perfusion-corrected brain values were statistically similar to subtraction-corrected brain values (Figure 5). […]

[9] = target: alcohol dehydrogenase (ADH); set-up: method as in PMID 18605724; settings: ADH concentration of 208 nM; cited from earlier work

SMILES: O=P(O)(O)Oc1c2c(c(OP(=O)(O)O)c3c1C1CC3c3cc4c(cc31)C1CC4c3ccccc31)C1CC2c2cc3c(cc21)C1CC3c2ccccc21 [CLR01]
- Radioactivity levels in the brain, % of blood levels [1]: ~ 2%
- Inhibition of five major cytochrome P450 isoforms [2]: minimal inhibition
- Protection of primary neurons from Aβ-induced effects [3]: protected primary neurons from Aβ-induced decrease in synaptic spine density, basal synaptic activity, and long-term potentiation
- Affinity for Lys residues [4]: low micromolar affinity
- Solubility in aqueous solutions [5]: soluble at millimolar concentrations
- SC bioavailability ([6]; 1 mg/kg SC vs IV, 2-m old WT mice): identical, within experimental error, to the IV administration
- Administered dose detected in the blood at the earliest time point ([6]; 20 min, SC or IV 1 mg/kg): ~ 30%
- Initial CLR01 levels found in the plasma ([6]; 8 h following SC or IV administration): Approximately 5%
- half-life ([6]; mouse, plasma, subcutaneous, SC or IV 1 mg/kg): ~2.5 h
- Oral bioavailability ([6]; oral gavage 10 mg/kg): negligible
- Affinity for Arg relative to Lys, fold lower [7]: ~ 10 fold
- Brain radioactivity levels over time ([8]; 0.5 - 72 h post-injection, IV): did not change significantly up to 72 h post-injection
- Brain penetration, % of blood ([8]; 1× CLR01 dose, 1 h, 22-m old WT mice): 0.86 ± 0.30%
- Brain penetration, % of blood ([8]; 5× CLR01 dose (59.3 μg/g), 1 h, 22-m old WT mice): 0.97 ± 0.28%
- Absolute amount of radioactivity in the brain relative to 1× dose ([8]; 5× CLR01 dose, 22-m old WT mice, on average): 5 times
- Blood radioactivity levels, % of the injected levels ([8]; 12-m old 3×Tg mice): 40 ± 6%
- Blood radioactivity levels, % of the injected levels ([8]; 12-m old WT mice): 39 ± 13%
- Brain radioactivity after double injection compared to one injection ([8]; 1 h, 22-m old WT mice): 3.3 ×
- Brain-radioactivity levels as a percentage of blood-radioactivity levels (CPM/g)/(CPM/ml) ([8]; 1 h following IV injection, 2-m old 3×Tg mice): 3.09 ± 0.55%
- Brain-radioactivity levels as a percentage of blood-radioactivity levels (CPM/g)/(CPM/ml) ([8]; 1 h following IV injection, 2-m old WT mice): 2.68 ± 0.31%
- Brain-radioactivity levels as a percentage of blood-radioactivity levels (CPM/g)/(CPM/ml) ([8]; 1 h following IV injection, 12-m old 3×Tg mice): 1.43 ± 0.17%
- Brain-radioactivity levels as a percentage of blood-radioactivity levels (CPM/g)/(CPM/ml) ([8]; 1 h following IV injection, 12-m old WT mice): 2.11 ± 0.69%
- Brain-radioactivity levels as a percentage of blood-radioactivity levels (CPM/g)/(CPM/ml) ([8]; 1 h following IV injection, 24-m old 3×Tg mice): 1.45 ± 0.28%
- Brain-radioactivity levels as a percentage of blood-radioactivity levels (CPM/g)/(CPM/ml) ([8]; 1 h following IV injection, 24-m old WT mice): 0.86 ± 0.17%
- Brain-radioactivity levels as a percentage of blood-radioactivity levels, over all groups ([8]; 1 h following IV injection, depending on age and genotype (WT versus 3×Tg)): 0.86–3.09% and 1 - 3% and ~ 2%
- Brain radioactivity after double injection compared to one injection ([8]; 3 h, 22-m old WT mice): 1.6 ×
- Brain radioactivity after double injection compared to one injection ([8]; 8 h, 22-m old WT mice): 1.9 ×
- Radioactivity observed at 0.5 h remaining in the blood ([8]; after 8 h, IV): 5 - 10%
- Brain CLR01 radioactivity levels per g of brain, most group × time combinations ([8]; single IV injection 11.86 μg/g): 10,000 - 20,000 CPM/g
- Route of excretion (urine radioactivity, qualitative) ([8]; urine collected between injection and euthanasia): excreted through the urine
- IC50 [9]: 180 µM
